Laboratory results published in paper PMC11091832 (Journal of medicinal chemistry, 2021).
Read-outs that look alike come from different tables or passages of the source.

Columns and labels:
hD2LR [1] = molecular target: T1, hD2LR (Homo sapiens, UniProt P14416); assay: Radioligand binding, agonist [3H]-; details: for (D3R/D2R) Ki ratio, [3H]-(R)-(+)-7-OH-DPAT: selectivity for D2R, value printed in parentheses
hD2LR [2] = molecular target: T1, hD2LR
hD3R [3] = molecular target: T2, hD3R (Homo sapiens, UniProt P35462)
T2 sequence (P35462 whole entry): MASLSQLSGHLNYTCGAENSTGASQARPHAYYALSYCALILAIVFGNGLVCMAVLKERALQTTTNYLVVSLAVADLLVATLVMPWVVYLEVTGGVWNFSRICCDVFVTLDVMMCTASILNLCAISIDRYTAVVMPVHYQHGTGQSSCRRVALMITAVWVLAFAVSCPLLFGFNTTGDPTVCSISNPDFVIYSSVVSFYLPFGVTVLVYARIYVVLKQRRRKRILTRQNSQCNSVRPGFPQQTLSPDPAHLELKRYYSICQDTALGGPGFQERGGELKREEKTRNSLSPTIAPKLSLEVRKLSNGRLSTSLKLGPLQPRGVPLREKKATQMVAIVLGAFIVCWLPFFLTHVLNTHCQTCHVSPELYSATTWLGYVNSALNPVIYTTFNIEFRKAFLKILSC

hD3R [4] = molecular target: T2, hD3R; assay: Radioligand binding, agonist [3H]-

T1 sequence (P14416 whole entry): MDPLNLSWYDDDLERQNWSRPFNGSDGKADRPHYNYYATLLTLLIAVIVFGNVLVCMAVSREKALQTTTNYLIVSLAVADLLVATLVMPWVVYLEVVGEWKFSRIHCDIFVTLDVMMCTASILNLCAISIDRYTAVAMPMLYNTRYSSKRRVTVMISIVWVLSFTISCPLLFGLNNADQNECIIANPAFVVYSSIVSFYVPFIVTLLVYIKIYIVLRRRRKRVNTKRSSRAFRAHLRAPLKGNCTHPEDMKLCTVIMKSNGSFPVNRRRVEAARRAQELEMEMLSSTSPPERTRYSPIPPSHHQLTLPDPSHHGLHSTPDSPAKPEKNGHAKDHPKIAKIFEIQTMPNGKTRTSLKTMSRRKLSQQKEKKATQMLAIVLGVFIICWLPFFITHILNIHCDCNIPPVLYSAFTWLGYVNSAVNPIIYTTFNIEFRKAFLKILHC

(D3R/D2R) Ki ratio, [3H]-(R)-(+)-7-OH-DPAT (hD2LR [1])	Ki (hD2LR [2])	Ki (hD3R [3])	Ki (hD3R [4])	Ki (hD2LR [1])	SMILES
(9.6)	–	–	–	–	CN(CC[C@@H]1CC[C@H](CNC(=O)c2cc3ccccc3[nH]2)C1)[C@@H]1Cc2cccc3[nH]c(=O)n(c23)C1 (relative stereo) [rel-cis-16a, N-((3-(2-(Methyl((R)-2-oxo-1,2,5,6-tetrahydro-4H-imidazo[4,5,1-ij]quinolin-5-yl)amino)ethyl)cyclopentyl)methyl)-1H-indole-2-carboxamide]
(17)	–	–	–	–	CN(CC[C@@H]1CC[C@@H](CNC(=O)c2cc3ccccc3[nH]2)C1)[C@@H]1Cc2cccc3[nH]c(=O)n(c23)C1 (relative stereo) [rel-trans-16b, N-((3-(2-(Methyl((R)-2-oxo-1,2,5,6-tetrahydro-4H-imidazo[4,5,1-ij]quinolin-5-yl)amino)ethyl)cyclopentyl)methyl)-1H-indole-2-carboxamide]
–	7920 ± 772 nM	104 ± 7.65 nM	7.41 ± 0.323 nM	55.9 ± 4.78 nM	C[C@H]1CO[C@@H](c2ccc(N)nc2)CN1CC=C1CCC(CNC(=O)c2cc3ccccc3[nH]2)C1 (mixture of isomers) [Compound 15, N-((3-(2-((2S,5S)-2-(6-Aminopyridin-3-yl)-5-methylmorpholino)ethylidene)cyclopentyl)methyl)-1H-indole-2-carboxamide]
